In patent publication US11083735B2, “Methods for treating sleep disorders, sleep disturbances, and related symptoms using aminosterol compositions” (Enterin, Inc., priority 2017, dated 2021):
Where “and” joins values, the source holds several entries; their conditions need not be identical. Equal values may be shown once.

Test system: elderly patient with a sleep disorder
Assay: Example 1: person with sleep disturbance, oral squalamine (Kenterin), sleep diary and I-button wrist temperature
Format: in vivo, human
Details: for % Change in Hours: 125 qod
Method: An elderly patient with a sleep disorder was treated with squalamine to determine the efficacy of the drug for treating sleep disturbances. The patient was a person with a 10 year history of sleep disturbance and a history of constipation, anxiety, and anosmia for as long as they could remember. Their sleep was profoundly disturbed: they had difficulty falling asleep, awoke 3-4 times during the night, had vivid dreams and nightmares, spoke and screamed out loud during their sleep (REM-behavior disorder, RBD), often saw “apparitions” or people in the room (e.g., a cook in a top hat, priests and angels dressed in white). They slept with a night light on in an attempt to minimize these occurrences.
The patient was treated with oral squalamine (Kenterin™) starting at 100 mg qd and increasing to 200 mg qd. Sleep was monitored indirectly with the use of a temperature sensor (I-button) mounted on a wristband. The sensor was programed to record skin temperature at the wrist every 15 minutes 24 hrs a day. Data were downloaded every few weeks.
In other words, as the dose is increased, the hours of sleep increase, and as the dose was decreased, the hours of sleep decreased. The effect was immediate. Shown in FIG. 2 is the hours of sleep resulting following the following dosing schedule for squalamine: (1) 100 mg q.d., (2) 150 mg q.d., (3) 200 mg q.d., (4) 125 mg every third day, (5) 100 mg every third day, and (6) 125 mg q.o.d.
In other words, the patient was falling asleep more easily. […] Thus, not only does squalamine decrease delay in sleep onset and increase total sleep time, but it also has an effect on RBD and hallucinations, both of which occur as a result of Circadian rhythm dysfunction.

[1] = 100 mg q3d, days 81-83, daily values and mean
[2] = 100 mg q3d, days 81-83, daily values and mean, mean
[3] = 150 mg q3d, days 105-111, daily values and mean
[4] = 150 mg q3d, days 105-111, daily values and mean, mean
[5] = 150 mg qod, days 100-104, daily values and mean
[6] = 150 mg qod, days 100-104, daily values and mean, mean
[7] = days 53-55: 175/200 mg, daily values and Mean 200
[8] = days 53-55: 175/200 mg, daily values and Mean 200, mean

CC(C)[C@@H](CC[C@@H](C)[C@H]1CC[C@H]2[C@@H]3[C@H](O)C[C@H]4C[C@@H](NCCCNCCCCN)CC[C@]4(C)[C@H]3CC[C@]12C)OS(=O)(=O)O [squalamine]
Delay [1]: 30 min | Fragments awake [1]: 40 min and 30 min | Total hrs sleep [1]: 6.75 h and 7 h | Fragments awake [2]: 36 min | Total hrs sleep [2]: 6.8 h | Delay (125 mg q3d, days 69-80, daily values and mean): 20 min and 30 min | Delay (125 mg q3d, days 69-80, daily values and mean, mean): 25 min | Delay [3]: 10 min and 15 min and 20 min | Total hrs sleep [3]: 10 h and 9.50 h and 8.75 h and 9.75 h and 8 h | Delay [4]: 14 min | Total hrs sleep [4]: 9.3 h | Delay [5]: 15 min and 20 min | Total hrs sleep [5]: 9 h and 8.5 h and 7.75 h and 10 h and 9.5 h | Delay [6]: 17 min | Total hrs sleep [6]: 8.95 h | % Change in Hours (from base) (100 qd): +5.3% | Total hrs sleep (100 qd (mg), pre (0) 7.5): 7.9 h | Total hrs sleep (125 qod (mg)): 8.7 h | % Change in Hours (from initial pre(0)): +16% from initial pre(0); | % Change in Hours (from post (0)): +24.3% from post (0) | % Change in Hours (from base) (150 qd): +17.3% | Total hrs sleep (150 qd (mg)): 8.8 h | Total hrs sleep (200 qd (mg), baseline 7.5): 9.1 h | % Change in Hours (from base) (Post (0)): −6.7% | Total hrs sleep (Post (0), after discontinuation of squalamine): 7.0 h | Fragments awake (after STOP, days 62-68, daily values and mean): 30 min and 20 min | diurnal rhythm (I-button recording, FIG. 7) (after an appropriate dose of squalamine): restored almost immediately | diurnal rhythmicity (I-button, periodogram) (after intermittent treatment for several months): some diurnal rhythmicity was restored | circadian rhythm (I-button, periodogram) (after the first week of treatment): still absent | Delay (days 53-55: 175 mg (day 53), 200 mg (days 54-55), daily values and Mean 200): 20 min | Fragments awake [7]: 15 min and 30 min | Total hrs sleep [7]: 9.0 h and 9.25 h | Fragments awake [8]: 20 min | Total hrs sleep [8]: 9.1 h | Total hrs sleep (off K, days 112-135, daily values and mean): 4.5 h | RBD (vivid dreams and nightmares) and frank visual hallucinations (on treatment, reappeared when medication was discontinued): disappeared on treatment
